pIC50: −log10 of the molar value.
Experiments:
[1] = tested on: THP-1 cells (TNFα secretion on human IgG-coated plate); test: TNFα generation assay; type: cell-based; details: IFN-γ differentiated THP-1 cells, 7 hours, AlphaLISA, read-out: IC50 of TNFα generation inhibitory activity
Experimental: THP-1 cells (2×10^5 cells/ml), which were human monocytoid cells, were cultured in the presence of 10 ng/ml IFN-γ (Roche) for 2 days, and they were induced to differentiate into macrophage-like cells. The differentiation-induced THP-1 cells were recovered, and the cells (1×10^6 cell/ml) were then allowed to react with a predetermined concentration of test compound at room temperature for 30 minutes. On the other hand, 100 μl of human IgG (10 μg/ml, SIGMA-ALDRICH) diluted with PBS was added to a 96-well plate, and it was then incubated at room temperature overnight. Thereafter, the resultant was washed with PBS twice to produce a human IgG-coated plate. A cell fluid that contained a compound was plated on the obtained human IgG-coated plate (5×10^4 cells/well), and it was then cultured for 7 hours. Thereafter, the cultured solution was recovered, and the amount of TNFα secreted into the culture solution was then measured by the AlphaLISA method (PerkinElmer).

[2] = biological target: T1, glutathione S-transferase (GST)-linked full-length human Syk protein (Homo sapiens, UniProt P43405); test: Syk enzyme assay; type: biochemical; details: 0.83 nM Syk, time-resolved fluorescence; read-out: IC50 of Syk-inhibitory activity
T1 construct: glutathione S-transferase (GST)-linked full-length human Syk protein; purchased Carna Biosciences; host or cells: Baculovirus expression system
Summary of the method: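 Phosphotyrosine on a biotin-peptide substrate (0.5 μM) was read by time-resolved fluorescence at 615 and 665 nm with Eu-anti-pTyr antibody and APC-streptavidin after 1 h EDTA stop.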

Row | SMILES | pIC50 [1] | pIC50 [2]
1 | CCn1ncc2c(Nc3nc(N[C@@H]4CCOC[C@@H]4N)c(F)cc3C(N)=O)cc(F)cc21 [Example 2-370, 6-(((3R,4R)-3-aminotetrahydro-2H-pyran-4-yl)amino)-2-((1-ethyl-6-fluoro-1H-indazol-4-yl)amino)-5-fluoronicotinamide] | 6.70 to 6.89 | > 8.00
2 | CCC[C@@H](Nc1nc(Nc2cnc3c(c2)c(C)nn3C)c(C(N)=O)cc1F)[C@H](C)N [Example 2-242, 6-(((2S,3R)-2-aminohexan-3-yl)amino)-2-((1,3-dimethyl-1H-pyrazolo[3,4-b]pyridin-5-yl)amino)-5-fluoronicotinamide] | 6.70 to 6.89 | 7.30 to 8.00
3 | Cc1ncc(Nc2nc(N[C@@H]3CCOC[C@@H]3N)c(F)cc2C(N)=O)cc1F [Example 2-225, 6-(((3R,4R)-3-aminotetrahydro-2H-pyran-4-yl)amino)-5-fluoro-2-((5-fluoro-6-methylpyridin-3-yl)amino)nicotinamide] | 6.70 to 6.89 | 7.30 to 8.00
4 | COCCn1nc(OC)c2cc(Nc3nc(N[C@H](C4CC4)[C@H](C)N)c(F)cc3C(N)=O)ccc21 [Example 2-539] | 6.70 to 6.89 | > 8.00
5 | CC(C)[C@@H](Nc1nc(Nc2ccc3ncccc3c2)c(C(N)=O)cc1F)[C@H](C)N [Example 2-106, 6-(((2S,3R)-2-amino-4-methylpentan-3-yl)amino)-5-fluoro-2-(quinolin-6-ylamino)nicotinamide] | 6.70 to 6.89 | 7.30 to 8.00
6 | CCCC[C@@H](Nc1nc(Nc2cnc(C)c(C)c2)c(C(N)=O)cc1F)[C@H](C)N [Example 2-19, 6-(((2S,3R)-2-aminoheptan-3-yl)amino)-2-((5,6-dimethylpyridin-3-yl)amino)-5-fluoronicotinamide] | 6.70 to 6.89 | > 8.00
7 | CC[C@H](N)[C@@H](C)Nc1nc(Nc2cnc(C)c(-n3nccn3)c2)c(C(N)=O)cc1F [Example 2-33, 6-(((2R,3S)-3-aminopentan-2-yl)amino)-5-fluoro-2-((6-methyl-5-(2H-1,2,3-triazol-2-yl)pyridin-3-yl)amino)nicotinamide] | 6.70 to 6.89 | 7.30 to 8.00
8 | C[C@H](N)[C@H](Nc1nc(Nc2ccc3c(c2)c(N(C)C)nn3C)c(C(N)=O)cc1F)C1CC1 [Example 2-72, 6-(((1R,2S)-2-amino-1-cyclopropylpropyl)amino)-2-((3-(dimethylamino)-1-methyl-1H-indazol-5-yl)amino)-5-fluoronicotinamide] | 6.70 to 6.89 | > 8.00
9 | CCC[C@@H](Nc1nc(Nc2cnc(C)c(F)c2)c(C(N)=O)cc1F)[C@H](C)N [Example 2-223, 6-(((2S,3R)-2-aminohexan-3-yl)amino)-5-fluoro-2-((5-fluoro-6-methylpyridin-3-yl)amino)nicotinamide] | 6.70 to 6.89 | > 8.00
10 | CC(C)C[C@H](CN)Nc1nc(Nc2cc(F)c3c(c2)c(N(C)C)nn3C)c(C(N)=O)cc1F [Example 2-185, (R)-6-((1-amino-4-methylpentan-2-yl)amino)-2-((3-(dimethylamino)-7-fluoro-1-methyl-1H-indazol-5-yl)amino)-5-fluoronicotinamide] | 6.70 to 6.89 | > 8.00
11 | CCC[C@@H](Nc1nc(Nc2ccc3c(c2)c(C)nn3CCOC)c(C(N)=O)cc1F)[C@H](C)N [Example 2-132, 6-(((2S,3R)-2-aminohexan-3-yl)amino)-5-fluoro-2-((1-(2-methoxyethyl)-3-methyl-1H-indazol-5-yl)amino)nicotinamide] | 6.70 to 6.89 | > 8.00
12 | Cc1nn(C)c2ncc(Nc3nc(N[C@@H](CN)CC(C)C)c(F)cc3C(N)=O)cc12 [Example 2-240, (R)-6-((1-amino-4-methylpentan-2-yl)amino)-2-((1,3-dimethyl-1H-pyrazolo[3,4-b]pyridin-5-yl)amino)-5-fluoronicotinamide] | 6.70 to 6.89 | > 8.00

Second part, the molecule after the results:

Row | pIC50 [1] | pIC50 [2] | SMILES
13 | 6.89 to 7.19 | > 8.00 | COc1nn(C)c2c(F)cc(Nc3nc(N[C@@H]4CCOC[C@@H]4N)c(F)cc3C(N)=O)cc12 [Example 2-211, 6-(((3R,4R)-3-aminotetrahydro-2H-pyran-4-yl)amino)-5-fluoro-2-((7-fluoro-3-methoxy-1-methyl-1H-indazol-5-yl)amino)nicotinamide]
14 | 6.89 to 7.19 | > 8.00 | C[C@H](N)[C@H](Nc1nc(Nc2cccc(-n3nccn3)c2)c(C(N)=O)cc1F)C1CC1 [Example 2-479, 2-((3-(2H-1,2,3-triazol-2-yl)phenyl)amino)-6-(((1R,2S)-2-amino-1-cyclopropylpropyl)amino)-5-fluoronicotinamide]
15 | > 7.19 | > 8.00 | NC(=O)c1cc(F)c(N[C@@H]2CCCC[C@@H]2N)nc1Nc1cccc(-n2ccnn2)c1 [Example 2-438, 2-((3-(1H-1,2,3-triazol-1-yl)phenyl)amino)-6-(((1R,2S)-2-aminocyclohexyl)amino)-5-fluoronicotinamide]
16 | 6.89 to 7.19 | > 8.00 | CC(C)C[C@@H](Nc1nc(Nc2ccc3cnn(C)c3c2)c(C(N)=O)cc1F)[C@H](C)N [Example 2-37, 6-(((2S,3R)-2-amino-5-methylhexan-3-yl)amino)-5-fluoro-2-((1-methyl-1H-indazol-6-yl)amino)nicotinamide]
17 | 6.70 to 6.89 | > 8.00 | CCn1ncc2c(Nc3nc(N[C@H](C4CC4)[C@H](C)N)c(F)cc3C(N)=O)cc(F)cc21 [Example 2-372, 6-(((1R,2S)-2-amino-1-cyclopropylpropyl)amino)-2-((1-ethyl-6-fluoro-1H-indazol-4-yl)amino)-5-fluoronicotinamide]
18 | 6.70 to 6.89 | 7.30 to 8.00 | Cc1nn(C)c2ncc(Nc3nc(N[C@@H]4CCCC[C@@H]4N)c(F)cc3C(N)=O)cc12 [Example 2-239, 6-(((1R,2S)-2-aminocyclohexyl)amino)-2-((1,3-dimethyl-1H-pyrazolo[3,4-b]pyridin-5-yl)amino)-5-fluoronicotinamide]
19 | 6.70 to 6.89 | > 8.00 | Cc1ccc(Nc2nc(N[C@@H]3CCCC[C@@H]3N)c(F)cc2C(N)=O)cc1C [Example 2-436, 6-(((1R,2S)-2-aminocyclohexyl)amino)-2-((3,4-dimethylphenyl)amino)-5-fluoronicotinamide]
20 | 6.89 to 7.19 | > 8.00 | CC(=O)c1cccc(Nc2nc(N[C@@H]3CCCC[C@@H]3N)c(F)cc2C(N)=O)c1 [Example 2-442, 2-((3-acetylphenyl)amino)-6-(((1R,2S)-2-aminocyclohexyl)amino)-5-fluoronicotinamide]
21 | 6.70 to 6.89 | 7.30 to 8.00 | CNc1ncc(Nc2nc(N[C@H](C3CC3)[C@H](C)N)c(F)cc2C(N)=O)cc1F [Example 2-274, 6-(((1R,2S)-2-amino-1-cyclopropylpropyl)amino)-5-fluoro-2-((5-fluoro-6-(methylamino)pyridin-3-yl)amino)nicotinamide]
22 | 6.89 to 7.19 | > 8.00 | CC(=O)c1cc(Nc2nc(N[C@@H]3CCCC[C@@H]3N)c(F)cc2C(N)=O)cnc1C [Example 2-518, 2-((5-acetyl-6-methylpyridin-3-yl)amino)-6-(((1R,2S)-2-aminocyclohexyl)amino)-5-fluoronicotinamide]
23 | 6.89 to 7.19 | > 8.00 | Cc1ccc(Nc2nc(N[C@H](C3CC3)[C@H](C)N)c(F)cc2C(N)=O)cc1C [Example 2-481, 6-(((1R,2S)-2-amino-1-cyclopropylpropyl)amino)-2-((3,4-dimethylphenyl)amino)-5-fluoronicotinamide]
24 | > 7.19 | > 8.00 | COc1nn(C)c2ccc(Nc3nc(N[C@@H]4CCOC[C@@H]4N)c(F)cc3C(N)=O)cc12 [Example 2-210, 6-(((3R,4R)-3-aminotetrahydro-2H-pyran-4-yl)amino)-5-fluoro-2-((3-methoxy-1-methyl-1H-indazol-5-yl)amino)nicotinamide]
25 | 6.89 to 7.19 | > 8.00 | CC[C@@H](Nc1nc(Nc2cccc(-n3nccn3)c2)c(C(N)=O)cc1F)[C@H](C)N [Example 2-475, 2-((3-(2H-1,2,3-triazol-2-yl)phenyl)amino)-6-(((2S,3R)-2-aminopentan-3-yl)amino)-5-fluoronicotinamide]
26 | 6.89 to 7.19 | > 8.00 | Cn1nc(F)c2cc(Nc3nc(N[C@@H]4CCOC[C@@H]4N)c(F)cc3C(N)=O)ccc21 [Example 2-209, 6-(((3R,4R)-3-aminotetrahydro-2H-pyran-4-yl)amino)-5-fluoro-2-((3-fluoro-1-methyl-1H-indazol-5-yl)amino)nicotinamide]
27 | 6.89 to 7.19 | > 8.00 | COCCn1nc(C)c2cc(Nc3nc(N[C@@H](CN)CC(C)C)c(F)cc3C(N)=O)ccc21 [Example 2-130]
28 | > 7.19 | > 8.00 | C[C@H](N)[C@H](Nc1nc(Nc2ccc3ncccc3c2)c(C(N)=O)cc1F)C1CCC1 [Example 2-8, 6-(((1R,2S)-2-amino-1-cyclobutylpropyl)amino)-5-fluoro-2-(quinolin-6-ylamino)nicotinamide]
29 | 6.89 to 7.19 | > 8.00 | COCCn1ncc2cc(Nc3nc(N[C@H](c4cccc(F)c4)[C@H](C)N)c(F)cc3C(N)=O)ccc21 [Example 2-454, 6-(((1R,2S)-2-amino-1-(3-fluorophenyl)propyl)amino)-5-fluoro-2-((1-(2-methoxyethyl)-1H-indazol-5-yl)amino)nicotinamide]
